According to publication PMC3349712, “DipA, a Pore-Forming Protein in the Outer Membrane of Lyme Disease Spirochetes Exhibits Specificity for the Permeation of Dicarboxylates” (PLoS ONE, 2012):

Target: T1, DipA (Borreliella burgdorferi, UniProt O51379)
T1 construct: gene BB_0418; native protein from outer membrane fraction of B. burgdorferi B31 delta-p66, hydroxyapatite chromatography in Genapol, untagged; predicted 20-residue signal peptide removed; 36 kDa; minor truncated OspA/OspB in fraction
T1 sequence (O51379 entry or part of it): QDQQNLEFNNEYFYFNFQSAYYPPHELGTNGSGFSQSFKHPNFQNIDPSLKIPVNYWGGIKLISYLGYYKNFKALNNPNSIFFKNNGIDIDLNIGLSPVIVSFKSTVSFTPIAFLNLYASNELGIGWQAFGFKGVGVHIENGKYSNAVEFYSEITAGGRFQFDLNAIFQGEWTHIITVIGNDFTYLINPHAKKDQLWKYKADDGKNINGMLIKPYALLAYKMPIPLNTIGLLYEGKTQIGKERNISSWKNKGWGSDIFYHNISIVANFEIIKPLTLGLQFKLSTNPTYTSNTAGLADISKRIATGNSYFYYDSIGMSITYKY
Test: biochemical
Type: binding
Description: planar lipid bilayer, titration of channel conductance block on DipA

**Q.** Which Kd does the source give for `O=C(O)CCC(=O)C(=O)O` [2-Oxoglutarate] here?
**A.** The Kd was 286 µM.

**Q.** How did the Kd turn out when `N[C@@H](CC(=O)O)C(=O)O` [Aspartate] was run?
**A.** Its Kd is 769 µM.

**Q.** `O=C(O)CC(O)(CC(=O)O)C(=O)O` [Citrate] was tested. Which Kd did it give?
**A.** The Kd was 76.9 µM.

**Q.** `O=C(O)/C=C/C(=O)O` [Fumarate] was tested. Which Kd did it give?
**A.** The Kd was 2380 µM.

**Q.** With `N[C@@H](CCC(=O)O)C(=O)O` [Glutamate] as the molecule, how does the Kd read?
**A.** The Kd was 800 µM.

**Q.** `O=C(O)C[C@H](O)C(=O)O` [Malate] was tested. Which Kd did it give?
**A.** The Kd was 769 µM.

**Q.** For `O=C(O)/C=C\C(=O)O` [Maleate], which Kd is on record?
**A.** The Kd was 35.3 µM.

**Q.** For `O=C(O)CC(=O)C(=O)O` [Oxaloacetate], which Kd is on record?
**A.** Its Kd is 50.3 µM.

**Q.** How did the Kd turn out when `O=C(O)c1ccccc1C(=O)O` [Phthalate] was run?
**A.** Its Kd is 175 µM.

**Q.** For `CC(=O)C(=O)O` [Pyruvate], which Kd is on record?
**A.** The Kd was 2130 µM.

**Q.** `O=C(O)CCC(=O)O` [Succinate] was tested. Which Kd did it give?
**A.** Its Kd is 164 µM.
